Converted amounts (≈) assume the structure as drawn. Where two headings read alike, the source gives them in different places.
Tests used:
solubility in water = assay type: physicochemical; conditions: parts of water needed to dissolve the salt
[1] = system: Streptococcus beta-haemolyticus; test: in vitro antibacterial activity (MIC) against hospital strains; assay type: cell-based
[2] = Streptococcus beta-haemolyticus strain B (hospital strain)
[3] = Streptococcus beta-haemolyticus strain C (hospital strain)
[4] = Streptococcus beta-haemolyticus strain D (hospital strain)
[5] = Streptococcus beta-haemolyticus strain A (hospital strain)

Row | Structure (SMILES) | soluble in p. water (solubility in water) [p.] | MIC [1, 2] [µg⁻¹ mL⁻¹] | MIC [1, 3] [µg⁻¹ mL⁻¹] | MIC [1, 4] [µg⁻¹ mL⁻¹] | MIC [1, 5] [µg⁻¹ mL⁻¹] | MIC ([1]; Streptococcus, Streptococcus beta-haemolyticus strain C (hospital strain)) [µg/mL] | soluble in p. ethanol 95% v/v (solubility in ethanol) [p.] | MIC ([1]; Streptococcus, Streptococcus beta-haemolyticus strain A (hospital strain), read-out: MIC) [µg/mL] | MIC ([1]; Streptococcus, Streptococcus beta-haemolyticus strain B (hospital strain), read-out: MIC) [µg/mL] | MIC ([1]; Streptococcus, Streptococcus beta-haemolyticus strain C (hospital strain), read-out: MIC) [µg/mL] | MIC ([1]; Streptococcus, Streptococcus beta-haemolyticus strain D (hospital strain), read-out: MIC) [µg/mL]
1 | CC[C@H]1OC(=O)[C@H](C)[C@@H](O[C@H]2C[C@@](C)(OC)[C@@H](O)[C@H](C)O2)[C@H](C)[C@@H](O[C@@H]2O[C@H](C)C[C@H](N(C)C)[C@H]2O)[C@](C)(O)C[C@@H](C)C(=O)[C@H](C)[C@@H](O)[C@]1(C)O [Erythromycin acetylsalicylate] | 100 | 0.6 | 0.3 | 0.075 |  |  |  |  |  |  | 
2 | CC[C@H]1OC(=O)[C@H](C)[C@@H](O[C@H]2C[C@@](C)(OC)[C@@H](O)[C@H](C)O2)[C@H](C)[C@@H](O[C@@H]2O[C@H](C)C[C@H](N(C)C)[C@H]2O)[C@](C)(O)C[C@@H](C)C(=O)[C@H](C)[C@@H](O)[C@]1(C)O [Erythromycin base, erythromycin A, reference compound] |  |  |  | 0.6 | 5 | 0.6 (≈ 0.818 µM) |  |  |  |  | 
3 | CCC(=O)O[C@H]1[C@H](O[C@@H]2[C@@H](C)[C@H](O[C@H]3C[C@@](C)(OC)[C@@H](O)[C@H](C)O3)[C@@H](C)C(=O)O[C@H](CC)[C@@](C)(O)[C@H](O)[C@@H](C)C(=O)[C@H](C)C[C@@]2(C)O)O[C@H](C)C[C@@H]1N(C)C [Propionylerythromycin (+)-alpha-mercapto-propionyl-glycinate] [Propionylerythromycin (+)-alpha-mercaptopropionyl-glycinate] | 90 | 0.3 | 0.3 | 0.3 | 5 |  | 2 |  |  |  | 
4 | CCC(=O)O[C@H]1[C@H](O[C@@H]2[C@@H](C)[C@H](O[C@H]3C[C@@](C)(OC)[C@@H](O)[C@H](C)O3)[C@@H](C)C(=O)O[C@H](CC)[C@@](C)(O)[C@H](O)[C@@H](C)C(=O)[C@H](C)C[C@@]2(C)O)O[C@H](C)C[C@@H]1N(C)C [Propionylerythromycin acetylsalicylate] | 300 | 0.3 | 0.3 | 0.3 | 5 |  | 4 |  |  |  | 
5 | CCC(=O)O[C@H]1[C@H](O[C@@H]2[C@@H](C)[C@H](O[C@H]3C[C@@](C)(OC)[C@@H](O)[C@H](C)O3)[C@@H](C)C(=O)O[C@H](CC)[C@@](C)(O)[C@H](O)[C@@H](C)C(=O)[C@H](C)C[C@@]2(C)O)O[C@H](C)C[C@@H]1N(C)C [Propionylerythromycin base, propionic ester (2'-.propanoate) of erythromycin A, reference compound] |  |  |  |  |  |  |  | 2.5 (≈ 3.16 µM) | 0.6 (≈ 0.759 µM) | 0.6 (≈ 0.759 µM) | 0.6 (≈ 0.759 µM)
6 | CCC(=O)O[C@H]1[C@H](O[C@@H]2[C@@H](C)[C@H](O[C@H]3C[C@@](C)(OC)[C@@H](O)[C@H](C)O3)[C@@H](C)C(=O)O[C@H](CC)[C@@](C)(O)[C@H](O)[C@@H](C)C(=O)[C@H](C)C[C@@]2(C)O)O[C@H](C)C[C@@H]1N(C)C [propionylerythromycin (-)-alpha-propionyl-glycinate] | 60 |  |  |  |  |  | 2 |  |  |  | 

Source: patent EP0096013A1, “Salts of erythromycin showing a combined therapeutic activity, process for their preparation and pharmaceutical formulations containing them” (NUOVO CONSORZIO SANITARIO NAZIONALE, priority 1982, dated 1983)
